Laboratory results taken from paper PMC6861653 (Chembiochem : a European journal of chemical biology, 2019).
*1 amine or outer side, *2 acyl side, *3 side chain or, on linkers, in order; H or OH if unused. Where a SMILES comes first, the peptide text is derived from it. [ ]: non-standard residue; d: D form. X1 = O=C([C@H]1CCC[C@@H]1N[*:1])[*:2]

Tests used:
Format in all cases: cell-based
[1] = target: T1, GLP-1R (Homo sapiens, UniProt P43220); test: Signaling bias by Black-Leff operational model
T1 sequence (P43220 24-463, species assumed): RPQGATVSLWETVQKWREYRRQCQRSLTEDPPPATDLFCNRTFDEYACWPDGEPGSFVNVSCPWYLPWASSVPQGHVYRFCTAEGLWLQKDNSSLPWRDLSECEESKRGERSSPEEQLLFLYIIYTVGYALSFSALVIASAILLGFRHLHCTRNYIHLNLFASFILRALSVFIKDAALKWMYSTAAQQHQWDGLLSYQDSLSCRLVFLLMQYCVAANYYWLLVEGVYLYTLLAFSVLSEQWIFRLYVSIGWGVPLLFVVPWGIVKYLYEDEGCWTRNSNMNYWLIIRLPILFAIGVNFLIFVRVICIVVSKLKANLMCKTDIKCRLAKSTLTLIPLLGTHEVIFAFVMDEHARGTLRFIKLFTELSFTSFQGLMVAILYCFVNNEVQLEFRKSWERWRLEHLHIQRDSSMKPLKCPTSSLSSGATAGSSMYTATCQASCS

[2] = target: T1, GLP-1R; conditions: HEK293 GloSensor cells transiently expressing GLP-1R
[3] = target: GLP-1R-RLuc8 / GFP^2-β-arrestin-1 (Homo sapiens, UniProt P43220); test: β-arrestin-1 recruitment to GLP-1R, BRET assay in HEK293FT cells
Sequence of GLP-1R-RLuc8 / GFP^2-β-arrestin-1 (P43220 24-463): as the sequence (P43220 24-463, species assumed) above
Sequence of GLP-1R-RLuc8 / GFP^2-β-arrestin-1 (P49407 whole entry partner): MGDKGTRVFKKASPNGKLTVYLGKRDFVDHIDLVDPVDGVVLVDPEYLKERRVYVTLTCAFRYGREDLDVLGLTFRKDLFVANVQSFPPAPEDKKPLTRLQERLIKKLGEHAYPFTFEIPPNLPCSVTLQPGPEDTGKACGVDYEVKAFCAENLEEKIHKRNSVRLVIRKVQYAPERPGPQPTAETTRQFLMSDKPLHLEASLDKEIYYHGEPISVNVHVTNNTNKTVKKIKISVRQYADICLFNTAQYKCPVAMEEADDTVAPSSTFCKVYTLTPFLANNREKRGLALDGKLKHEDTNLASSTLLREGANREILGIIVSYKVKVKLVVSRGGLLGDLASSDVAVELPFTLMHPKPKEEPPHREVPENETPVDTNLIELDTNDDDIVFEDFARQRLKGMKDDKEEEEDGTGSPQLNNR

[4] = target: GLP-1R-RLuc8 / GFP^2-β-arrestin-2(R393E, R395E) (Homo sapiens, UniProt P43220); test: β-arrestin-2 recruitment to GLP-1R, BRET assay in HEK293FT cells
Sequence of GLP-1R-RLuc8 / GFP^2-β-arrestin-2(R393E, R395E) (P43220 24-463, stated change not applied): as the sequence (P43220 24-463, species assumed) above

SMILES | Signal bias relative to GLP-1, in words [1] | GLP-1R activation by cAMP production, in words [2] | β-arrestin-1 recruitment to the GLP-1R, in words [3] | β-arrestin-2 recruitment to the GLP-1R, in words [4]
CC[C@H](C)[C@H](NC(=O)[C@H](Cc1ccccc1)NC(=O)[C@H](CCC(=O)O)NC(=O)[C@H]1CCC[C@@H]1NC(=O)[C@H](C)NC(=O)[C@H](C)NC(=O)[C@H](CCC(N)=O)NC(=O)[C@H]1CCC[C@@H]1NC(=O)[C@H](CCC(=O)O)NC(=O)[C@H](CC(C)C)NC(=O)[C@H](Cc1ccc(O)cc1)NC(=O)[C@H]1CCC[C@@H]1NC(=O)[C@H](CO)NC(=O)[C@@H](NC(=O)[C@H](CC(=O)O)NC(=O)[C@H](CO)NC(=O)[C@@H](NC(=O)[C@H](Cc1ccccc1)NC(=O)[C@@H](NC(=O)CNC(=O)[C@H](CCC(=O)O)NC(=O)[C@H](C)NC(=O)[C@@H](N)Cc1c[nH]cn1)[C@@H](C)O)[C@@H](C)O)C(C)C)C(=O)N[C@H]1CCC[C@@H]1C(=O)N[C@@H](Cc1c[nH]c2ccccc12)C(=O)N[C@@H](CC(C)C)C(=O)N[C@H](C(=O)N[C@H]1CCC[C@@H]1C(=O)NCC(=O)N[C@@H](CCCNC(=N)N)C(N)=O)C(C)C [1b] (H-HAEGTFTSDVS[X1]YLE[X1]QAA[X1]EFI[X1]WLV[X1]GR-NH2; N-terminus assumed) | biased toward β-arrestin-2 recruitment vs. cAMP production | – | – | –
CC[C@H](C)[C@H](NC(=O)[C@H](Cc1ccccc1)NC(=O)C[C@H](CCC(=O)O)NC(=O)[C@H](CCCCN)NC(=O)[C@H](C)NC(=O)[C@H](C)NC(=O)C[C@H](CCC(N)=O)NC(=O)CNC(=O)[C@H](CCC(=O)O)NC(=O)[C@H](CC(C)C)NC(=O)C[C@H](Cc1ccc(O)cc1)NC(=O)[C@H](CO)NC(=O)[C@H](CO)NC(=O)[C@@H](NC(=O)[C@H](CC(=O)O)NC(=O)[C@H](CO)NC(=O)[C@@H](NC(=O)[C@H](Cc1ccccc1)NC(=O)[C@@H](NC(=O)CNC(=O)[C@H](CCC(=O)O)NC(=O)[C@H](C)NC(=O)[C@@H](N)Cc1c[nH]cn1)[C@@H](C)O)[C@@H](C)O)C(C)C)C(=O)N[C@@H](C)C(=O)N[C@H](CC(=O)N[C@@H](CC(C)C)C(=O)N[C@H](C(=O)N[C@@H](CCCCN)C(=O)NCCC(=O)N[C@@H](CCCNC(=N)N)C(N)=O)C(C)C)Cc1c[nH]c2ccccc12 [2a] | modestly biased toward cAMP production relative to β-arrestin-1 recruitment | – | – | –
CC[C@H](C)[C@H](NC(=O)[C@H](Cc1ccccc1)NC(=O)[C@H]1CCC[C@@H]1NC(=O)[C@H](CCCCN)NC(=O)[C@H](C)NC(=O)[C@H](C)NC(=O)[C@H]1CCC[C@@H]1NC(=O)CNC(=O)[C@H](CCC(=O)O)NC(=O)[C@H](CC(C)C)NC(=O)[C@H]1CCC[C@@H]1NC(=O)[C@H](CO)NC(=O)[C@H](CO)NC(=O)[C@@H](NC(=O)[C@H](CC(=O)O)NC(=O)[C@H](CO)NC(=O)[C@@H](NC(=O)[C@H](Cc1ccccc1)NC(=O)[C@@H](NC(=O)CNC(=O)[C@H](CCC(=O)O)NC(=O)[C@H](C)NC(=O)[C@@H](N)Cc1c[nH]cn1)[C@@H](C)O)[C@@H](C)O)C(C)C)C(=O)N[C@@H](C)C(=O)N[C@H]1CCC[C@@H]1C(=O)N[C@@H](CC(C)C)C(=O)N[C@H](C(=O)N[C@@H](CCCCN)C(=O)N[C@H]1CCC[C@@H]1C(=O)N[C@@H](CCCNC(=N)N)C(N)=O)C(C)C [2b] (H-HAEGTFTSDVSS[X1]LEG[X1]AAK[X1]FIA[X1]LVK[X1]R-NH2; N-terminus assumed) | smaller bias toward β-arrestin-2 vs. cAMP production | – | – | –
CC[C@H](C)[C@H](NC(=O)[C@H]1CCC[C@@H]1NC(=O)[C@H](CCC(=O)O)NC(=O)[C@H](CCCCN)NC(=O)[C@H](C)NC(=O)[C@H]1CCC[C@@H]1NC(=O)[C@H](CCC(N)=O)NC(=O)CNC(=O)[C@H](CCC(=O)O)NC(=O)[C@H]1CCC[C@@H]1NC(=O)[C@H](Cc1ccc(O)cc1)NC(=O)[C@H](CO)NC(=O)[C@H](CO)NC(=O)[C@@H](NC(=O)[C@H](CC(=O)O)NC(=O)[C@H](CO)NC(=O)[C@@H](NC(=O)[C@H](Cc1ccccc1)NC(=O)[C@@H](NC(=O)CNC(=O)[C@H](CCC(=O)O)NC(=O)[C@H](C)NC(=O)[C@@H](N)Cc1c[nH]cn1)[C@@H](C)O)[C@@H](C)O)C(C)C)C(=O)N[C@@H](C)C(=O)N[C@@H](Cc1c[nH]c2ccccc12)C(=O)N[C@H]1CCC[C@@H]1C(=O)N[C@H](C(=O)N[C@@H](CCCCN)C(=O)NCC(=O)N[C@H]1CCC[C@@H]1C(=O)NCC(N)=O)C(C)C [3b] (H-HAEGTFTSDVSSY[X1]EGQ[X1]AKE[X1]IAW[X1]VKG[X1]G-NH2; N-terminus assumed) | – | no activation of the GLP-1R could be detected | inability to induce recruitment of either β-arrestin | inability to induce recruitment of either β-arrestin
CC(C)C[C@H](NC(=O)[C@H](Cc1ccc(O)cc1)NC(=O)[C@H](CO)NC(=O)[C@H]1CCC[C@@H]1NC(=O)[C@@H](NC(=O)[C@H](CC(=O)O)NC(=O)[C@H](CO)NC(=O)[C@@H](NC(=O)[C@H](Cc1ccccc1)NC(=O)[C@@H](NC(=O)CNC(=O)[C@H](CCC(=O)O)NC(=O)[C@H](C)NC(=O)[C@@H](N)Cc1c[nH]cn1)[C@@H](C)O)[C@@H](C)O)C(C)C)C(=O)N[C@H]1CCC[C@@H]1C(=O)NCC(=O)N[C@@H](CCC(N)=O)C(=O)N[C@@H](C)C(=O)N[C@H]1CCC[C@@H]1C(=O)N[C@@H](CCCCN)C(=O)N[C@@H](CCC(=O)O)C(=O)N[C@@H](Cc1ccccc1)C(=O)N[C@H]1CCC[C@@H]1C(=O)N[C@@H](C)C(=O)N[C@@H](Cc1c[nH]c2ccccc12)C(=O)N[C@@H](CC(C)C)C(=O)N[C@H]1CCC[C@@H]1C(=O)N[C@@H](CCCCN)C(=O)NCC(=O)N[C@@H](CCCNC(=N)N)C(N)=O [4b] (H-HAEGTFTSDV[X1]SYL[X1]GQA[X1]KEF[X1]AWL[X1]KGR-NH2; N-terminus assumed) | balanced signaling behavior | – | – | –
